Laboratory results taken from patent publication US20250205253A1, “PHARMACEUTICAL COMPOSITION FOR PREVENTING OR TREATING BENIGN PROSTATIC HYPERPLASIA” (University-Industry Cooperation Group of Kyung Hee …, priority 2023, published 2025).

Key:
[1] = tested on: siRNA-transfected RWPE-1 cells; assay: siRNA transfection (NLRP3 or AR knockdown) with qRT-PCR in RWPE-1 cells; type: cell-based, human; details: for NLRP3 level (mRNA) in AR siRNA-transfected cells / AR level (mRNA) in NLRP3 siRNA-transfected cells: DHT stimulation, with or without 100 μM MitoQ; for NLRP3 level (mRNA) in AR siRNA-transfected cells: FIG. 3E; for AR level (mRNA) in NLRP3 siRNA-transfected cells: FIG. 3D
Protocol: (§1) Total RNA was isolated using Easy-Blue® reagent (iNtRON Biotechnology, Inc., Gyeonggi, Korea) and transcribed into complementary DNA (cDNA) according to the manufacturer's instructions. Oligonucleotide primers (Table 1) were purchased from Bioneer Corporation (Daejeon, Korea). qRT-PCR was performed according to the known method.
The RWPE-1 cells were transfected with siRNA (Bioneer Corporation) or pmaxGFP™ vector using a 4D-Nucleofector™ system (Lonza, Basel, Switzerland). The following siRNA nucleotide sequences were used: NLRP3 siRNA, […]=tt(1-AS) (SEQ ID NO.: 39) and […]=tt (1-AA) (SEQ ID NO.: 40) and AR siRNA, […]=tt (6-AS) (forward) (SEQ ID NO.: 41) and […]=tt (6-AA) (reverse) (SEQ ID NO.: 42). After four hours of incubation, the cells were treated in the presence or absence of MitoQ 100 μM. The effect of NLRP3 or AR knockdown was detected using qRT-PCR.

[2] = tested on: testosterone-induced BPH rat model; assay: Immunofluorescence (8-OHdG, NLRP3) of rat prostate tissue; type: in vivo
Protocol: After deparaffinization and rehydration, rat prostate tissue slides were incubated with anti-mouse 8-OHdG antibodies or anti-rabbit NLRP3 antibodies and visualized with FITC-conjugated anti-mouse and TRITC-conjugated anti-rabbit secondary antibodies, respectively.
The slides were mounted and detected using a Nikon X-Cite-Series 120 Q microscope (Nikon, Japan). The exposure parameters were the same for each sample.
(§2) Six-week-old male Sprague-Dawley rats (n=40; 200 +20 g) were purchased from Daehan Biolink Co. (Daejeon, Korea). The animals were randomly allocated, four rats in each cage, and housed in accordance with the guidelines for the care and use of laboratory animals adopted and promulgated by Sangji University according to the requirements established by the National Institutes of Health. All experimental protocols were approved by the Institutional Animal Care and Use Committee (IACUC) of Sangji University before the initiation of the study (IACUC Animal Approval Protocol #2018-18). The rats were acclimatized to laboratory conditions for one week before initiating the experiment.
(§3) The rats in the control group were incised and sutured without removing the testicles following anesthesia using zoletil 50 (intraperitoneal injection, 10 mg/kg). […] Twenty-four hours after the final administration, all rats were euthanized following anesthesia with zoletil 50 (i.p., 20 mg/kg). […]

[3] = tested on: DHT-stimulated RWPE-1 cells; assay: Western blot analysis in DHT-stimulated RWPE-1 cells; type: cell-based, human; details: DHT-stimulated RWPE-1, MitoQ 25, 50, 100 μM
Protocol: (§4) The RWPE-1 cells were cultured in a keratinocyte serum-free medium supplemented with 0.05 mg/mL bovine pituitary extract, 5 ng/mL human recombinant epidermal growth factor, and antibiotic-antimycotic solution (Gibco®, Big Cabin, OK, USA). The cells were cultured in a humidified environment at 37° C. and 5% CO2. The cells were cultured in a serum-free medium to block the effects of autocrine androgens.
(§5) Total protein was extracted from the RWPE-1 cells and rat prostate tissues, and a western blot analysis was performed. An antibody against AR (Cat. No. sc-7305) was purchased from Santa Cruz Biotechnology, Inc. (TX, USA). Boster Biological Technology (CA, USA) provided an antibody against a prostate-specific antigen (PSA; Cat. No. PB9259). An antibody against caspase-3 (Cat. No. #9661) was purchased from Cell Signaling Technology. Novus Biologicals (CO, USA) provided an antibody against NLRP3 (Cat. No. NBP2-12446). An antibody against IL-1β (Cat. No. 2105) was purchased from Abcam (Cambridge, UK).

[4] = tested on: testosterone-induced BPH rat model; assay: ROS assay on cells from rat prostate tissue; type: in vivo; details: dose-dependent, MitoQ 5 and 25 mg/kg/day; FIG. 5C
Source text: as §2
(§6) The rats in the control group were incised and sutured without removing the testicles following anesthesia using zoletil 50 (intraperitoneal injection, 10 mg/kg). […] Twenty-four hours after the final administration, all rats were euthanized following anesthesia with zoletil 50 (i.p., 20 mg/kg). Blood samples were drawn through cardiac puncture, and serum was obtained via centrifugation and stored at −80° C.
After the male rats were euthanized, the prostate tissues were excised and treated with type I collagenase (Thermo Fisher Scientific, MA, USA) to isolate the cells. […] The cells were incubated for 30 minutes at 37° C. and detected using a Muse® Cell Analyzer (Merck, Darmstadt, Germany).

[5] = tested on: testosterone-induced BPH rat model; assay: Histological analysis (H&E) of prostate tissue of rats with BPH; type: in vivo; details: MitoQ 5, 25 mg/kg/day; Saw 100 mg/kg/day p.o.; FIGS. 4C, 4D
Source text: as §2, §6
Prostate tissues from each group were fixed in 4% formalin and embedded in paraffin. The tissues were cut into 4-μm sections. […] The thickness of the epithelium in the prostate tissues was measured using the Leica Application Suite software (LAS ver. 3.3.0, Leica Microsystems, Inc., Buffalo Grove, IL, USA).

[6] = tested on: DHT-stimulated RWPE-1 cells; assay: qRT-PCR mRNA expression in DHT-stimulated RWPE-1 cells; type: cell-based, human; details: for mRNA level of HO-1 and GPX-1: FIG. 1E
Protocol: as §4, §1

[7] = tested on: testosterone-induced BPH rat model; assay: Testosterone-induced BPH rat model, prostate size and weight; type: in vivo
Source text: as §2, §6

[8] = tested on: DHT-stimulated RWPE-1 cells; assay: ATPase assay in DHT-stimulated RWPE-1 cells; type: cell-based, human; details: DHT-stimulated RWPE-1, MitoQ 25, 50, 100 μM, 24 h; FIG. 2E
[9] = tested on: DHT-stimulated RWPE-1 cells; assay: CCK-8 assay, RWPE-1 cell proliferation under DHT stimulation; type: cell-based, human; details: 10 nM DHT, 24 h, FIG. 1C
Protocol: as §4
(§7) The cell viability and proliferation were measured using the Cell Counting Kit-8 (CCK-8, Dojindo Molecular Technologies, Inc., D.C., USA). The RWPE-1 cells were plated to 96-well plates (1×10^5 cells/well) and incubated for 24 h. […] After the treatment, the CCK-8 solution was added to each well and incubated for four hours. The number of viable cells was monitored by measuring absorbance at 450 nm using an Epoch microplate reader (Biotek, Winooski, VT, USA).

[10] = tested on: DHT-stimulated RWPE-1 cells; assay: ATP determination assay in DHT-stimulated RWPE-1 cells; type: cell-based, human; details: DHT-stimulated RWPE-1, MitoQ 25, 50, 100 μM, dose-dependent; FIG. 2F
[11] = biological target: T1, AR (PDB ID: 2AMA) (Homo sapiens, UniProt P10275); assay: Docking simulation (AutoDock Vina v1.1.2) on AR
T1 sequence (P10275 664-920 limits assumed): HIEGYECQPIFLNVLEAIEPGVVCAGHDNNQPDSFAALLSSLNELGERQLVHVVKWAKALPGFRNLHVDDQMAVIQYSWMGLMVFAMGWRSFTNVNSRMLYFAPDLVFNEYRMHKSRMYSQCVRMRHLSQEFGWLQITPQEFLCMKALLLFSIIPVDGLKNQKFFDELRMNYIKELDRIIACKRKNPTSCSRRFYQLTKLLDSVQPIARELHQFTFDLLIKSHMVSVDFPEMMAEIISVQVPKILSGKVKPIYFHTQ

[12] = tested on: testosterone-induced BPH rat model; assay: qRT-PCR mRNA level in prostate of rats with BPH; type: in vivo
Protocol: as §1, §2, §6

[13] = tested on: testosterone-induced BPH rat model; assay: PCNA IHC and qRT-PCR in prostate of rats with BPH; type: in vivo
Protocol: as §1, §2, §3

[14] = tested on: testosterone-induced BPH rat model; assay: Western blot of prostate tissue of rats with BPH; type: in vivo
Protocol: as §5, §2, §6

[15] = tested on: RWPE-1 cells; assay: CCK-8 assay, viability of MitoQ-treated RWPE-1 cells; type: cell-based, human; details: without DHT, 24 h, FIG. 1B
Protocol: The normal human prostate epithelial cell line, RWPE-1, was obtained from the American Type Culture Collection (Manassas, VA, USA).
as §4, §7

[16] = tested on: testosterone-induced BPH rat model; assay: Serum DHT and testosterone measurement (ELISA) in rats with BPH; type: in vivo
Source text: as §2, §6
The serum DHT and testosterone levels were quantified using commercial ELISA kits (Cusabio, TX, USA). The assays were performed according to the manufacturer's instructions.

[17] = tested on: DHT-stimulated RWPE-1 cells; assay: Immunofluorescence (8OHdG, NLRP3, AR) in DHT-stimulated RWPE-1 cells; type: cell-based, human; details: DHT-stimulated RWPE-1, MitoQ 25, 50, 100 μM
Protocol: as §4
Thereafter, the cells were washed and incubated with fluorescein isothiocyanate (FITC)-conjugated anti-mouse or tetramethylrhodamine (TRITC)-conjugated anti-rabbit secondary antibodies. Nuclei were stained with 4′,6-diamidino-2-phenylindole (Life Technologies). Images were captured using an optical microscope (ECLIPSE Ni-U, Nikon, Tokyo, Japan).

[18] = tested on: DHT-stimulated RWPE-1 cells; assay: Mitochondrial activity and mtROS levels (MitoTracker, MitoSOX); type: cell-based, human; details: DHT-stimulated RWPE-1, 100 μM MitoQ, 24 h; FIG. 1F

## AR siRNA: siRNA CUCUCUUCACAGCCGAAGA=tt (SEQ ID NO.: 41) and UCUUCGGCUGUGAAGAGAG=tt (SEQ ID NO.: 42) (3' dTdT overhangs, further chemistry not given here)
[1]
  NLRP3 level (mRNA) in AR siRNA-transfected cells: significantly enhanced

## NLRP3 siRNA: siRNA CGUGACAGUCCUUCUGGAA=tt (SEQ ID NO.: 39) and UUCCAGAAGGACUGUCACG=tt (SEQ ID NO.: 40) (3' dTdT overhangs, further chemistry not given here)
[1]
  AR level (mRNA) in NLRP3 siRNA-transfected cells: significantly increased
[1]; DHT-stimulated RWPE-1, vs GFP-transfected cells, FIG. 2C
  NLRP3 and IL-1β levels after siRNA transfection: notably suppressed
[1]; RWPE-1 cells, FIG. 2G
  NLRP3 mRNA expression after siRNA transfection: significant decrease

## mitoquinone
[2]; FIGS. 6A, 6B
  BPH-upregulated expression of NLRP3: reversed
[2]; vs BPH groups, FIGS. 5A, 5B
  intensity of 8-OHdG-positive staining: significantly lower
[3]; FIG. 1G
  SOD2 and catalase protein expression: significantly increased
[3]; FIG. 3C
  PSA protein expression: considerably suppressed
[4]
  intracellular ROS generation in prostate cells: significantly suppressed
[5]
  thickened epithelium of prostate tissue: significantly reduced
[6]; DHT-stimulated RWPE-1, 100 μM MitoQ
  mRNA level of HO-1 and GPX-1: significantly increased
[6]; DHT-stimulated RWPE-1, MitoQ 25, 50, 100 μM, FIG. 2B
  mRNA expression of NLRP3, PYCARD, and IL-1β: significantly reduced
[6]; DHT-stimulated RWPE-1, MitoQ 25, 50, 100 μM, FIG. 3B
  mRNA level of AR, 5α-reductase 2, and PSA: notably inhibited
[6]; DHT-stimulated RWPE-1, MitoQ treatment
  mRNA level of HO-1 and GPX-1: normalized
[7]; MitoQ 5, 25 mg/kg/day, Saw 100 mg/kg/day p.o., vs BPH, FIG. 4B
  prostate weight (PW/BW ratio): significant reduction
[7]; MitoQ 5 and 25 mg/kg p.o., four weeks, FIG. 4A
  prostate size: reduced
[8]
  ATPase-specific activity: significantly suppressed
[9]
  concentration of MitoQ significantly suppressing DHT-stimulated RWPE-1 cell proliferation: ≥ 6.25 μM
[10]
  ATP level: significantly reduced
[11]
  difference between the affinity values of DHT and MitoQ for AR: ~1 kcal/mol
[12]; FIG. 5D
  mRNA level of HO-1, SOD1, and PGC1α: upregulated
[12]; FIG. 6C
  increased mRNA level of PYCARD and IL-1β: repressed
[12]; FIGS. 7B, 7C
  mRNA level of 5α-reductase 2, AR, and SRC-1: downregulated
[13]; MitoQ 25 mg/kg/day vs Saw 100 mg/kg/day
  cellular proliferation inhibiting effect compared to Saw: superior
[13]; MitoQ 5, 25 mg/kg/day, Saw 100 mg/kg/day p.o., FIGS. 4C, 4E, 4F
  overexpression of PCNA protein and mRNA: clearly suppressed
[14]; FIGS. 6D, 6E
  overexpression of NLRP3, pro-caspase 1, cleaved caspase 1, and IL-1β proteins: suppressed
[14]; vs BPH groups, FIG. 5E
  expression of catalase and SOD2 (protein): significantly higher
[14]; vs BPH groups, FIG. 7D
  protein expression of PSA: decreased
[15]
  concentration of MitoQ suppressing RWPE-1 cell proliferation (viability): ≥ 25 μM
[1]
  AR level (mRNA) in NLRP3 siRNA-transfected cells: notably downregulated
  NLRP3 level (mRNA) in AR siRNA-transfected cells: significantly suppressed
[16]; FIG. 7A
  serum DHT overproduction: significantly suppressed
[16]; MitoQ 25 mg/kg, Saw 100 mg/kg/day, FIG. 7E
  circulating (serum) testosterone level: significantly reduced
[17]; FIG. 1D
  overexpression of 8OHdG (oxidative stress indicator): notably suppressed
[17]; FIG. 2A
  NLRP3 protein expression: significantly suppressed
[17]; FIG. 3A
  AR overexpression (protein): clearly suppressed
[18]
  excessive production of mtROS: suppressed
